Data published in patent publication US7649018B2, “Mono- and di-phosphates of 3-(3-fluoro-4-hydroxy-phenyl)-7-hydroxy-naphthalene-1-carbonitrile” (Wyeth LLC, priority 2007, dated 2010).

Experiment: Stability of intravenous stock solution
Type: physicochemical
Conditions: stock solution 10 mg/mL in phosphate buffered saline adjusted to pH about 7.4 with NaOH; at 40 C
Procedure: Preparation Procedures: An intravenous formulation will be made as a stock solution (10 mg/mL) one day prior to the start of dosing consisting of phosphate buffered saline adjusted to pH about 7.4 with NaOH. The dosing formulations will be prepared on the day of dosing by diluting the appropriate amount of the stock solution with D5W to obtain concentrations of 3.14 mg/mL of Compound 3 and then will be sterile filtered using a 0.20 micron filter about few hours prior to the start of dosing. The test formulation was stored at approximately 4° C. protected from light. The vehicle used for IV introduction was phosphate buffered saline consisting of 0.0144% (w/v) of KH2PO4, 0.90% (w/v) of NaCL, 0.0795% (w/v) of Na2HPO4, 0.325% of NaOH (1N) and […] sterile water for injection with the resulting pH of approximately 7.4. The stock solution (10 mg/mL) is stable for 7 days at 40 C.

Structure (SMILES): N#Cc1cc(-c2ccc(OP(=O)(O)O)c(F)c2)cc2ccc(OP(=O)(O)O)cc12 [Compound 3]
- Time over which stock solution is stable: 7 days
